Test results from patent US20060078630A1, “Method for the production of flavonoid-containing compositions and use thereof” (priority 2003, published 2006).

Assays:
[1] = Antioxidant effect by the TEAC III method; assay type: biochemical; details: in comparison with Trolox and ascorbic acid
Experimental: The relative antioxidant effect of […] extract was determined by the TEAC III method in comparison with Trolox and ascorbic acid: The TEAC III method and other methods are described in Böhm V. (2000) Ernährungsumschau 47, pages 372-375.

[2] = tested on: activated mononuclear cells (lymphocytes); assay: Induction of apoptosis in activated mononuclear cells (cell death detection ELISA); assay type: cell-based; details: individual flavonoids contained in the extracts; FIG. 5b
Experimental: After addition of the additives, the cells were stimulated with 1 μg/ml of phytohaemagglutinin and incubated for 48 h in an incubator. The apoptosis induction was then determined by measuring the oligonucleosomes (low molecular weight DNA fragments) formed in the cells (cell death detection ELISA). […] The apoptosis induction could be blocked by a caspase inhibitor, i.e. is caspase-induced (FIG. 5a).

[3] = tested on: phytohaemagglutinin-stimulated mononuclear cells from peripheral blood; assay: Inhibition of proliferation of stimulated mononuclear cells by individual flavonoids (3H-thymidine incorporation); assay type: cell-based, human; details: luteolin, luteolin-7-glucoside, apigenin at 64-2 μg/ml; 1 μg/ml phytohaemagglutinin; 24 h + 18 h 3H-thymidine; FIG. 3b
Experimental: For this purpose, mononuclear cells from the peripheral blood of a health donor were isolated via Ficoll density gradients and incubated in RPMI medium with 5% foetal calf serum in microtitre plates. The cells were incubated in triplicates with the flavonoids luteolin, luteolin-7-glucoside and apigenin. The pure substances were dissolved in 70% ethanol and further diluted in medium. The final concentrations were 64, 32, 16, 8, 4, 2 and 0 μg/ml. After addition of the flavonoids, the cells were stimulated with 1 μg/ml of phytohaemagglutinin and incubated for 24 h in an incubator at 37° C. After addition of 1 μCurie of radioactive ^3H-thymidine, the cells were incubated for a further 18 h, and the incorporated radioactivity was then measured in a scintillation counter (Canberra-Packard).

SMILES	relative antioxidant effect [1]	apoptosis-inducing activity among individual flavonoids [2]	proliferation-inhibiting effect among individual flavonoids [3]
O=C1O[C@H]([C@@H](O)CO)C(O)=C1O [Ascorbic acid]	1.1	–	–
Cc1c(C)c2c(c(C)c1O)CCC(C)(C(=O)O)O2 (stereo not shown) [Trolox]	1.0	–	–
O=c1cc(-c2ccc(O)c(O)c2)oc2cc(O)cc(O)c12 [luteolin]	–	strongest apoptosis-inducing activity	strongest proliferation-inhibiting effect
